Data reported in publication PMC7791840, “The R-enantiomer of ketorolac reduces ovarian cancer tumor burden in vivo” (BMC Cancer, 2021).
“Also recorded” adds a separate entry of the source. Structures can show the parent of a compound that is named as a salt.

Columns and labels:
SKOV3ip-GFP cells [1] = assay: Two-week intraperitoneal tumor growth model (tumor burden); type: in vivo, mice; settings: 1 mg/kg twice daily oral, 14 days, vs placebo
Source text: For two-week tumor studies, 1 × 10^6 non-treated SKOV3ip-GFP cells were i.p. injected. All mice started R-ketorolac treatment one day prior to cell injection and continued treatment until conclusion of the study 14 days later. Mice were imaged using a Light Tools imaging system (Synopsys Optical Solutions, Westminster CO) with long pass GFP filters. Three images per mouse were captured to ensure all tumors were counted. Green fluorescent tumors were identified and counted in the peritoneal cavity as single tumors if there was a distinct border of non-fluorescent tissue. Tumor burden of the omentum occurred either as one large tumor or a bundle of tumors and was not included in the final analysis of tumor number. Total tumor counts from the peritoneal cavity were normalized to placebo treated animals within individual experiments. Blood was collected via cardiac puncture and ketorolac enantiomer concentrations were measured by HPLC analysis as described in Supplemental Methods (Additional File 1: Supplemental Methods). […]

Rac1 = target: T1, Rac1 (Homo sapiens, UniProt P63000); assay: Flow cytometric GTPase effector binding assay in tumor lysates (Rac1); type: in vivo; settings: oral 1 mg/kg twice daily, 2 weeks; vs placebo
T1 construct: Frozen tumor samples were lysed without thawing; from tissue; host or cells: peritoneal SKOV3ip-GFP xenograft tumours from treated mice
Procedure: (§1) GTPase effector binding assays were carried out according to the protocols described previously. Frozen tumor samples were lysed without thawing with the addition of RIPA lysis buffer with the following modifications (no β-glycerphosphate,1 mM NaF and protease, 1% (v/v) NP-40 (nonyl phenoxypolyethoxylethanol) inhibitors consisting 10 μg/ml each of chymostatin, leupeptin, pepstatin and antipain). Protein concentrations were determined using GLISA quick protein concentration kit and lysates were adjusted to uniform protein concentrations of 0.5 mg/ml. Insoluble debris was removed by centrifugation at 14,000 RPM in a cold microfuge and the supernatants were incubated with GTPase effector coated beads (PAK1-PBD for Cdc42 and Rac1) for 1 h at 4 °C with rotation. Primary antibodies directed against Cdc42 or Rac1 and secondary antibody Alexa 488 were incubated with the beads for 1 h. Fluorescence intensity MCF (mean channel fluorescence) was used to measure the amount of active intracellular GTPase. MCF was measured by flow cytometry (Accuri C6, BD Biosciences). GTPase activity was calculated as (MCFsample group – MCFunstimulated negative control) / MCFstimulated positive control.

Cdc42 = target: T2, Cdc42 (Homo sapiens, UniProt P60953); assay: Flow cytometric GTPase effector binding assay in tumor lysates (Cdc42); type: in vivo; settings: oral 1 mg/kg twice daily, 2 weeks; vs placebo
T2 construct: Frozen tumor samples were lysed without thawing; from tissue; host or cells: peritoneal SKOV3ip-GFP xenograft tumours from treated mice
T2 sequence (P60953 whole entry): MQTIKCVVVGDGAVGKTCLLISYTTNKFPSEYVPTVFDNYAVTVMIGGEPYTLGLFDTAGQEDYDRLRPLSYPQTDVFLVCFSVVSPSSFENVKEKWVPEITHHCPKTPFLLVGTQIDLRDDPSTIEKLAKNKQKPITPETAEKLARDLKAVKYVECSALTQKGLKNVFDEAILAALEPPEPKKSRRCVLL
Procedure: as §1

SKOV3ip-GFP cells [2] = assay: Measurement of omental weight; type: in vivo, mice; settings: two-week tumor study, 1 mg/kg twice daily; no significant differences between groups
Source text: page 1: SUPPLEMENTAL METHODS Cell Culture and Reagents SKOV3ip cells were modified to express GFP-Rac1 by transfection with pcDNA3-EGFP-Rac1- wt (Catalog # 12980, Addgene) as described for SKOV3ip-GFP cells under Methods. Rac1 overexpression quantification and verification was completed by western blot and qPCR. SKOV3ip-GFP and SKOV3ip-GFP-Rac1 cell populations were further enriched by flow sorting for GFP positive cells. SKOV3ip-GFP-Rac1 cell lines were maintained under the same selection as described for SKOV3ip-GFP cells (Methods). In vivo Drug Dosing Racemic (R-/S-) ketorolac tromethamine salt was purchased from Sigma (St. Louis MO, cat# K1136), S-ketorolac was purchased from Toronto Research Chemicals (Toronto Canada, cat# K235602) and dissolved in water or 100% ethanol, respectively . Mice received twice daily […] mg/kg of body weight. Measurement of Omental Weight Omental tissue was harvested and stored on ice in PBS for no more than 1 hour before analysis. Omenta were blotted dry on lab tissue and weight was measured using an analytical balance (Denver Instruments Company, A -160). There was a non-significant decreasing trend in omental weight for treated mice when compared to placebo mice ( Additional File 3: Table S1). […] Ketorolac was detected using a UV spectrometer set at UV310. […]

SKOV3ip-GFP cells [3] = assay: Short-term omental engraftment assay; type: in vivo, mice; settings: 18 h post i.p. injection; 1 mg/kg oral every 12 h; cells pretreated with 10 μM; vs placebo
Procedure: Mice were conditioned to placebo pills for two days prior to drug treatment. […] Consumption was confirmed by visual observation. […] Omenta were harvested from animals 18 h post-injection and placed in ice cold 1X phosphate-buffered saline (PBS) until imaged with an Olympus IX70 inverted fluorescent microscope and Olympus CellSens software. SKOV3ip-GFP cells were subsequently digested from the omentum using 10% NP-40 substitute (Sigma, cat# 74385) in 1X PBS for 30 min at 37 °C. Omenta were gently homogenized using disposable micropestles, centrifuged, and fluorescence intensity was measured using a […] Spectramax M2 plate spectrophotometer (ex:480 nm, em:520 nm).

RhoA = tested on: RhoA; parameters: method as in PMID 26071482; settings: cited from earlier work

Structure (SMILES)	Tumor burden (tumor implants within the peritoneal cavity) (SKOV3ip-GFP cells [1]; listed as Racemic drug)	Rac1 GTPase activity in tumor lysates (Rac1)	Cdc42 GTPase activity in tumor lysates (Cdc42)	Omental weight, Mean ± SD (SKOV3ip-GFP cells [2])	Omental engraftment (GFP fluorescence, omental localization of SKOV3ip-GFP cells) (SKOV3ip-GFP cells [3])	Tumor burden (tumor implants within the peritoneal cavity) (SKOV3ip-GFP cells [1])	Inhibition of RhoA activity (RhoA)
O=C(c1ccccc1)c1ccc2n1CCC2C(=O)O (stereo not shown) [R−/S-ketorolac, ketorolac tromethamine salt]	significantly decreased tumor burden	Inhibition of the target GTPases was evident	Inhibition of the target GTPases was evident	0.058 ± 0.026 g	–	–	–
O=C(c1ccccc1)c1ccc2n1CC[C@H]2C(=O)O [R-ketorolac]	–	significantly decreased	significantly decreased	0.059 ± 0.018 g	decreased the omental localization of SKOV3ip-GFP cells	significantly fewer tumor implants; also recorded: significantly decreased tumor burden	does not inhibit the activity of RhoA
